Experiment: Fatty acid composition of pig tissues (ham, loin, belly, skin) after feeding SDA ethyl ester diets, 35 day study
Assay type: in vivo, pigs
Description: A 35 day study was conducted to determine whether pigs fed a diet containing SDA could enhance tissues with improved fatty acid profiles including increased levels of SDA, EPA, and DHA.
Four test diets (Treatment 2, 3, 4, and 5) with SDA ethyl ester substituted for corn oil to provide 0.2, 0.4, 0.6 and 0.8% (w/w SDA active ingredient, as-is basis) were fed ad libitum to one pen of four pigs throughout the 35-day test period Table 4). All diets were fed in meal form. Treatment 6 was fed the same diet as Treatment 5, but for a duration of only 21 days.
All pigs were individually weighed at initiation of the acclimation and test period, and immediately prior to slaughter. Feed consumption per pen was recorded. Upon completion of the feeding period, pigs were slaughtered for tissue collection and carcass evaluation. Pigs were slaughtered using standard industry practices (electrical stunning, exsanguinations, scalding, dehairing and evisceration). Live weights prior to slaughter and hot carcass weights were recorded. The left side of each carcass was fabricated and samples were obtained from the loin (longissimus muscle), ham (semimembranosus muscle) and belly (a section from the center of the belly) for sensory evaluation, fatty acid, and proximate analysis. Prior to removing the sample for sensory and fatty and proximate analysis from the belly the firmness of the belly was evaluated using a flop test. At 24 hr postmortem fat thickness (10th rib), loin eye area (10th rib), visual color, firmness and marbling, Minolta color (L*a*b*), pH, and drip loss were measured.
In order to evaluate the fatty acid composition of pig tissues (loin, ham, skin, and belly), samples were stored at −80° C. until evaluation. After thawing, ˜22 g of fresh pig tissue was chopped into small pieces and thoroughly mixed before 10 g was sub sampled and lyophilized. Lyophilized samples were ground in 30 ml Sarstedt tubes with two ball bearings using a Mega Grinder. Ground samples (loin and ham: 50 mg; skin: 100 mg; belly: 150 mg; diet: 500 mg) were directly methylated with sulfuric acid in methanol (loin and ham: 1 mL; skin: 3 mL; belly: 10 mL; diet: 1.5 mL) sealed in the presence of butylated hydroxytoluene (50 mg BHT in 100 ml reagent) in reflux conditions of 90° C. Resultant fatty acid methyl esters (FAME's) were separated by capillary gas chromatography (GC) and detected by flame ionization detector (FID). The column used was a Supelco Omegawax 250 capillary column with dimensions of 30 m×0.25 mm×0.25 μm film thickness. The run time was 32 minutes. Peaks were identified based on their relative retention time compared to a FAME reference mixture. Quantification was achieved by using an internal standard (c15:0 triacylglyceride (TAG) for pig tissue samples and c17:0 TAG for diet samples). Results are reported as FA g/100 g fat with theoretical response correction.
For Table 6 below, each value represents g/100 g total fatty acids a mean of 4 samples (1 sample from each of 4 pigs) per treatment.

## CC/C=C\C/C=C\C/C=C\C/C=C\CCCCC(=O)O [SDA, stearidonic acid]
SDA 0.6%, 35 Day
  18:4 n-3, ham: 3.56c mg FA/100 g of fresh tissue
  20:1 n-9, ham: 13.3 mg FA/100 g of fresh tissue
  20:2 n-6, ham: 6.1b mg FA/100 g of fresh tissue
  20:3 n-3, ham: 0.87 mg FA/100 g of fresh tissue
  20:4 n-3, ham: 5.85c mg FA/100 g of fresh tissue
  20:4 n-6, ham: 55.3 mg FA/100 g of fresh tissue
  20:5 n-3, ham: 11.32bc mg FA/100 g of fresh tissue
  22:1 n-11, ham: 0.58a mg FA/100 g of fresh tissue
  22:5 n-3, ham: 14.4bc mg FA/100 g of fresh tissue
  22:6 n-3, ham: 2.14 mg FA/100 g of fresh tissue
  Lipid content, ham: 2.24%
  Total PUFA, ham: 337.7 mg FA/100 g of fresh tissue
  Total monoenes, ham: 1039 mg FA/100 g of fresh tissue
  Total n-3, ham: 43.1b mg FA/100 g of fresh tissue
  Total n-6, ham: 294.5 mg FA/100 g of fresh tissue
  Total saturates, ham: 765.2 mg FA/100 g of fresh tissue
  n-3/n-6, ham: 0.147
SDA 0.8%, 21 Day
  12:0, ham: 2.2 mg FA/100 g of fresh tissue
  14:0, ham: 36.8 mg FA/100 g of fresh tissue
  16:0, ham: 701.1 mg FA/100 g of fresh tissue
  16:1 n-7, ham: 108.3 mg FA/100 g of fresh tissue
  18:0, ham: 358.1 mg FA/100 g of fresh tissue
  18:1 n-7, ham: 138.1 mg FA/100 g of fresh tissue
  18:1 n-9, ham: 1266.2 mg FA/100 g of fresh tissue
  18:2 n-6, ham: 290.7 mg FA/100 g of fresh tissue
  18:3 n-3, ham: 8.66 mg FA/100 g of fresh tissue
  18:4 n-3, ham: 3.67c mg FA/100 g of fresh tissue
  20:1 n-9, ham: 21.8 mg FA/100 g of fresh tissue
  20:2 n-6, ham: 11.3a mg FA/100 g of fresh tissue
  20:3 n-3, ham: 1.33 mg FA/100 g of fresh tissue
  20:4 n-3, ham: 7.23c mg FA/100 g of fresh tissue
  20:4 n-6, ham: 63.4 mg FA/100 g of fresh tissue
  20:5 n-3, ham: 9.68b mg FA/100 g of fresh tissue
  22:1 n-11, ham: 0.95ab mg FA/100 g of fresh tissue
  22:5 n-3, ham: 13.2bc mg FA/100 g of fresh tissue
  22:6 n-3, ham: 1.85 mg FA/100 g of fresh tissue
  Lipid content, ham: 3.23%
  Total PUFA, ham: 433.7 mg FA/100 g of fresh tissue
  Total monoenes, ham: 1546 mg FA/100 g of fresh tissue
  Total n-3, ham: 45.6b mg FA/100 g of fresh tissue
  Total n-6, ham: 388.1 mg FA/100 g of fresh tissue
  Total saturates, ham: 1104.4 mg FA/100 g of fresh tissue
  n-3/n-6, ham: 0.121c
SDA 0.8%, 35 Day
  12:0, ham: 1.04 mg FA/100 g of fresh tissue
  14:0, ham: 18.3 mg FA/100 g of fresh tissue
  16:0, ham: 386.7 mg FA/100 g of fresh tissue
  16:1 n-7, ham: 52.8 mg FA/100 g of fresh tissue
  18:0, ham: 206.6 mg FA/100 g of fresh tissue
  18:1 n-7, ham: 81.5 mg FA/100 g of fresh tissue
  18:1 n-9, ham: 685.9 mg FA/100 g of fresh tissue
  18:2 n-6, ham: 208.6 mg FA/100 g of fresh tissue
  18:3 n-3, ham: 4.70 mg FA/100 g of fresh tissue
  18:4 n-3, ham: 4.09c mg FA/100 g of fresh tissue
  20:1 n-9, ham: 9.9 mg FA/100 g of fresh tissue
  20:2 n-6, ham: 5.1b mg FA/100 g of fresh tissue
  20:3 n-3, ham: 0.62 mg FA/100 g of fresh tissue
  20:4 n-3, ham: 5.36bc mg FA/100 g of fresh tissue
  20:4 n-6, ham: 54.2 mg FA/100 g of fresh tissue
  20:5 n-3, ham: 14.69c mg FA/100 g of fresh tissue
  22:1 n-11, ham: 0.57a mg FA/100 g of fresh tissue
  22:5 n-3, ham: 14.2bc mg FA/100 g of fresh tissue
  22:6 n-3, ham: 2.35 mg FA/100 g of fresh tissue
  Lipid content, ham: 1.88%
  Total PUFA, ham: 330.6 mg FA/100 g of fresh tissue
  Total monoenes, ham: 846 mg FA/100 g of fresh tissue
  Total n-3, ham: 46.0b mg FA/100 g of fresh tissue
  Total n-6, ham: 284.6 mg FA/100 g of fresh tissue
  Total saturates, ham: 616.6 mg FA/100 g of fresh tissue
  n-3/n-6, ham: 0.162
SDA fed for the last 35 days prior to slaughter
  Omega 3 fatty acid enrichment in belly, loin, ham and skin tissues as compared to the control: significant increase
Treatment 5 (35 day) vs Treatment six (21 day), 0.8% SDA, ham
  More DHA deposition with 35 days than with 21 days of SDA consumption: about 27%

Source: US20090197955A1, “METHODS OF IMPROVING DHA DEPOSITION AND RELATED FUNCTION AND/OR DEVELOPMENT” (Monsanto Company, priority 2008, published 2009)
